# Measured values taken from US10426842B2, “Targeted nanoparticle conjugate and method for co-delivery of siRNA and drug” (The Curators of the University of Missouri, priority 2015, dated 2019).
# Assays:
# [1] = system: H23 human adenocarcinoma non-small cell lung cancer cells
# Procedure: Considering downregulation of downstream-phosphorylated proteins, the cell viability of H23 cells (MTT assay) after knocking down the RAS pathway was then investigated.
# (Thermo Scientific, USA). For determining in vitro cytotoxicity, the MTT assay was performed by incubating various samples including the nanoparticle of interest on H23 and A549 cells.
# Each sample was analyzed in triplicate. After 24 hours of incubation, 10 μl of MTT solution (ATCC, USA) was added and the plate was incubated at 37° C. for 4 hours. Crystals formed were dissolved in 100 μl solubilizing buffer and the plates were kept at 25° C. for 2 hours. The intensity of the color developed after addition of the solubilizing buffer was measured using Biotek Cytation 3 spectrophotometer at 570 nm.
# Viability of the cells transfected with various samples was then calculated by considering the untreated cells as 100% viable.
# [2] = system: NT5E (CD73) gene expression in H23 cells; test: Quantitative real-time RT-PCR of NT5E (CD73); format: cell-based, human; conditions: relative to untreated, 18sRNA reference
# Procedure: (§1) The effect of the oncogene knockdown on gene expression of DUSP6 and NT5E genes were observed by quantitative real-time RT-PCR. Initially H23 cells (1×10^6 cells/well) were treated with 4 samples including untreated, GelNP-Ab, GelNP-Ab-siRNA and siRNA (transfection agent). RNA was extracted through standard RNA extraction protocol. cDNA was synthesized from RNA extracted from the treated cells. The quality and the concentration of the extracted RNA was determined using bioanalyzer. 18sRNA was used as an reference gene (housekeeping gene) for data normalization. Primers and probes for all genes were purchased from Integrated DNA Technologies (IDT). PCR was performed in a reaction volume of 20 μl containing 2 μl cDNA using the Gene Amp 7700 Sequence Detection System. The comparative Ct protocol was followed to determine the relative expression levels.
# [3] = system: DUSP6 gene expression in H23 cells; test: Quantitative real-time RT-PCR of DUSP6; format: cell-based, human; conditions: relative to untreated, 18sRNA reference
# Procedure: In this inquiry, quantitative real time PCR was performed to examine dual specificity phosphatase 6 (DUSP6) and CD73 gene expression levels.
# as §1
# [4] = system: SHP2, pSHP2 (Y542), pSHP2 (Y580) in KRAS mutated H23 cells; test: Western blot and densitometry for SHP2 and phospho-SHP2
# Procedure: The Western blot analysis was performed as follows. Cells were seeded at a density of 1×10^6 cells/ml and incubated for overnight at 37° C. in 5% CO2 atmosphere. Nanoparticle and relevant control samples were incubated in serum free media for the period of 72 hrs. […] Whole-cell lysates were prepared using Triton X 100 lysis buffer with MS-SAFE protease and phosphatase cocktail inhibitor (Sigma-Aldrich) and the protein concentration was equalized by Bicinchoninic acid assay (Sigma-Aldrich).
# Membranes were incubated with primary antibody overnight, were washed and incubated with secondary antibody. Primary antibodies used for western blotting are rabbit polyclonal anti-β-actin, rabbit monoclonal anti-AKT, rabbit monoclonal anti-phospho-AKT, rabbit polyclonal anti-MEK1/2, rabbit polyclonal anti-phospho-MEK1/2, rabbit monoclonal anti-EGFR, rabbit monoclonal anti-phospho-EGFR, rabbit monoclonal anti-SHP2, rabbit polyclonal anti-phospho-SHP2 (Tyr542), rabbit polyclonal anti-phospho-SHP2 (Tyr580), rabbit monoclonal anti-phospho-GAB1 (Tyr627), rabbit polyclonal anti-phospho-GAB1 (Tyr307), all from Cell Signaling and mouse monoclonal anti-KRAS from Santa Cruz Biotech. […] Protein expression levels were quantified by densitometry analysis.
substance,measurement,setting,value
"transfected siRNA: KRAS G12C siRNA (SEQ ID NO. 1 annealed with SEQ ID NO. 2) delivered with transfecting agent (sense GUUGGAGCUUGUGGCGUAGUUUU; antisense AACUACGCCACAAGCUCCAACUU; disulfide moiety, further chemistry not given here)",cytotoxicity / change in viability (in words),[1],no toxicity
same,cell survival post RAS oncogene knockdown,"[1]; H23 cells, without gefitinib",100%
same,CD73 (NT5E) RF value (real time qPCR),[2],1.07
same,RF value of DUSP6 (real time qPCR),[3],0.1
same,"SHP2, pSHP2 (Y542) and pSHP2 (Y580) level",[4]; in the presence of gefitinib,significant downregulation
same,"SHP2, pSHP2 (Y542) and pSHP2 (Y580) level",[4]; without gefitinib,did not show any effect
